Data from PMC10531095, “Photonics of Some Monomethine Cyanine Dyes in Solutions and in Complexes with Biomolecules” (International Journal of Molecular Sciences, 2023).

How the values were obtained:
[1] = test system: dsDNA; experiment: Flash photolysis: triplet state of MCD in the presence of dsDNA; design: species or system chick; details: for k1, decay rate constant of the T state (first exponent) / k2, decay rate constant of the T state (second exponent): two-exponential decay
From the text: Upon direct flash photoexcitation of deoxygenated solutions of MCD 1–4, signals corresponding to triplet–triplet (T–T) absorption were not observed due to the low efficiency of intersystem crossing to the triplet (T) state, in comparison with competing processes of nonradiative deactivation of excited states of dye molecules, which is common for MCD [41]. Complexation with dsDNA hinders these competing processes, which leads to an increase in the quantum yield of the T state of MCD. In the presence of dsDNA, under direct photoexcitation, the signals of T states of MCD 1–3 were detected, and their different T–T absorption spectra were measured (Figure 10).
Quantum yields of intersystem crossing to the triplet state (ΦST) of MCD 1–3 in the presence of dsDNA were estimated by flash photolysis using optical actinometry (see Materials and Methods). The obtained values of ΦST for MCD 1–3 were 2.6 ± 0.4%, 5.7 ± 0.8%, and 10.7 ± 1.5%, respectively.
The spectral–kinetic characteristics of the T state of MCD were studied by flash photolysis. The experiment was carried out on a setup with excitation by a xenon lamp (lamp flash energy ~50 J, duration τ1/2 = 10 μs). When registering T states, the solutions were deoxygenated using a vacuum setup. The manometric unit was used to determine the air pressure in a series of experiments on T state quenching by dissolved oxygen. The T state of MCD 4 in PBS solution in the presence of dsDNA was obtained by energy transfer from the triplet level of sodium naphthalene-2-sulfonate (ET~21,000 cm^−1 [83]). The quantum yields of T states (ΦT) of the dyes in the presence of dsDNA were estimated actinometrically. Dyes with known ΦT were used as actinometers: the xanthene dye Acid Red 87 (ΦT = 0.8 (aq); [84]) and the cyanine dye 3,3′-diethyl-9-methoxythiacarbocyanine iodide (ΦT = 0.16–0.20 in n-propanol; [85]).

[2] = molecular target: T1, human serum albumin (HSA) (Homo sapiens, UniProt P02768); experiment: Spectral fluorescent titration of the dyes with HSA in PBS; format: binding; details: for nSc, stoichiometric coefficient (Scatchard): HSA (nSc = 1 taken for HSA); for KeffBH, effective complexation constant (Benesi–Hildebrand): fluorescent titration; for αb, proportion of bound dye: cbiomol = 5 × 10^−5 mol L^−1; for Fmax/F0, fluorescence growth at 100% binding: from the Benesi–Hildebrand dependence; for K2Sc, complexation constant (Scatchard): nSc = 1; for φfl^b, fluorescence quantum yield of the dye in the presence of biopolymer: cHSA~5 × 10^−5 mol L^−1; for LOD: detection of HSA; for LOQ: quantification of HSA
T1 construct: purchased Sigma-Aldrich
From the text: Complexation of MCD 1–4 with DNA (double-stranded and single-stranded) and with human serum albumin (HSA) was studied by spectral fluorescent methods in a wide range of biopolymer concentrations (cdsDNA = 0–1.5 × 10^−4 mol L^−1; cssDNA = 0–1.4 × 10^−4 mol L^−1; cHSA = 0–1.4 × 10^−4 mol L^−1 in PBS buffer). The absorption, fluorescence, and fluorescence excitation spectra of MCD 1 and 3 in the presence of dsDNA are shown in Figure 3 and Figure 4, respectively.
The complication of chemical equilibrium, and the variety of interactions between MCD and biopolymer (dye aggregation/deaggregation, the possibility of forming complexes of several types with DNA/HSA) makes it problematic to determine the exact values of the complexation constants of the dyes with DNA. The values of the effective equilibrium constants of the complexation reaction of MCD with biopolymers (Keff, L mol^−1, see Table 7) were estimated from spectral fluorescent data. In this case, we had to assume a simple equilibrium MCD (monomer, free) ⇄ MCD (monomer, bound). For these purposes, we used the Benesi–Hildebrand [59], Hill, and Scatchard formalisms (See Supplementary Materials, Equations (S9)–(S13)). For dsDNA, fitting according to the modified Scatchard equation was carried out assuming one dye molecule per one DNA turn (K1Sc at nSc = const = 10 b.p.), as well as varying both the constant (K2Sc) and the stoichiometric coefficient (nSc). In the case of ssDNA, nSc is given per one base; for HSA, nSc = 1.
Distilled water, 0.01 M aqueous phosphate buffer saline solution (PBS; pH 7.4, containing 0.137 M NaCl and 0.0027 M KCl), ethanol, benzyl alcohol, isopentyl alcohol, acetonitrile, DMSO, 1,4-dioxane, chloroform, DMSO, acetone, methyl ethyl ketone, ethyl acetate (all analytical grade). Commercial chick erythrocyte DNA (Reanal, Budapest, Hungary) and human serum albumin (HSA, Sigma-Aldrich, St. Louis, MO, USA) were used.
Absorption spectra were recorded on an SF-2000 spectrophotometer (Experimental-Construction Company “Spectrum”, St. Petersburg, Russia); fluorescence and fluorescence excitation spectra were recorded on a Fluorat-02-Panorama spectrofluorimeter (Group of Companies “Lumex”, St. Petersburg, Russia). The fluorescence and fluorescence excitation spectra were corrected for the spectral characteristics of the instrument (excitation channel signal) and sample transmission. Changes in the intrinsic fluorescence of HSA upon binding of MCD (in the presence of the dyes) were recorded in the synchronous fluorescence scanning (SFS) mode. In SFS mode, when registering spectra, a fixed difference Δλ= λfl − λex is maintained for the channels of excitation and registration. Synchronous scanning spectra were obtained at Δλ = 15 nm (fluorescence of tyrosine residues in the HSA molecule) and Δλ = 60 nm (fluorescence of tryptophan). The spectra were measured in 1 cm quartz semi-micro cells (Bio-Rad, Hercules, CA, USA).
The equilibrium constants of MCD complexation with biomolecules (Ka, L mol^−1) were obtained from fluorescence spectra using the Benesi–Hildebrand [59], Hill, and Scatchard equations [61] (see Supplementary Materials, Equations (S9)–(S13)). Limits of detection (LOD) and quantification (LOQ) of biomolecules were determined from concentration plots of MCD fluorescence intensities (see Supplementary Materials, Equations (S14) and (S15)). […]
1. Spectral‐Fluorescent Titration
In experiments on spectral‐fluorescence titration, MCD 1–4 were dosed from their concentrated st ock solutions in EtOH. Microvolumes (~0.5–5 μL) were dosed into the measuring cell (dilution 1:500 – 1:1000). […]
Measurements of the intrinsic fluorescence of HSA in the presence of MCD were carried out at a constant concentration of HSA (cHSA ~ 2.0 × 10–5 mol L–1) by titration with increasing concentrations of dyes. After stirring, the absorption and fluorescence spectra of the dyes were recorded several times. […]

T1 sequence (P02768 25-609): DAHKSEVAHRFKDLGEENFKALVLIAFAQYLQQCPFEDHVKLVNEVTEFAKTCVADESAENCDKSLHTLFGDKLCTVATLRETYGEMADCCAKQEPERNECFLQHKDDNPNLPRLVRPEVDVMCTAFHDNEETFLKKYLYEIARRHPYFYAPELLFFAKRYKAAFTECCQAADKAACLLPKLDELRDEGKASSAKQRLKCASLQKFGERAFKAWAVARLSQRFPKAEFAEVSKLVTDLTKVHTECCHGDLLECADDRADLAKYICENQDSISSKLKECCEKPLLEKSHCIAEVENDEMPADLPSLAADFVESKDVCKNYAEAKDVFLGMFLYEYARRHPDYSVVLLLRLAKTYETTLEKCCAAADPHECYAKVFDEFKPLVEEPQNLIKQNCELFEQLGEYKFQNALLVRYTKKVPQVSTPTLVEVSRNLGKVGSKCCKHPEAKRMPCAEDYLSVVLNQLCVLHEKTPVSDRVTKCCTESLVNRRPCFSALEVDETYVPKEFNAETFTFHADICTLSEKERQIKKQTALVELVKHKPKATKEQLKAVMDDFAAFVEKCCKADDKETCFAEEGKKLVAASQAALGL

SMILES	k1, decay rate constant of the T state (first exponent) [1]	k2, decay rate constant of the T state (second exponent) [1]	LR, linear portion of fluorescence intensity vs. concentration plot ([2]; HSA)	nHill, Hill coefficient ([2]; HSA)	nSc, stoichiometric coefficient (Scatchard) [2]	KeffHill, effective complexation constant (Hill) ([2]; HSA, PBS buffer)	KeffBH, effective complexation constant (Benesi–Hildebrand) ([2]; HSA, PBS buffer)	αb, proportion of bound dye ([2]; HSA)	Fmax/F0, fluorescence growth at 100% binding ([2]; HSA)	K2Sc, complexation constant (Scatchard) ([2]; HSA)	φfl^b, fluorescence quantum yield of the dye in the presence of biopolymer [2]	LOD [2]	LOQ [2]	also measured
CC[N+](CC)(CC)CCC[n+]1ccc(/C=C2\Sc3ccccc3N2C)c2ccc(O)cc21 [MCD 1]	~ 9.9 × 10^3 s^−1	~2000 s⁻¹	0–0.6 ^3 µmol L^−1	0.89	1	3350 L/mol	8000 L/mol	27%	65	7300 L/mol	~1 ± 0.1%	270 nM	890 nM	lower sensitivity to HSA than to dsDNA ([2]; HSA versus dsDNA): about 37 times; εf/εb, relative change in molar extinction coefficient on complexation ([2]; HSA, PBS buffer): 1.59; hypochromia of the absorption band ([2]; cHSA = 2.5 × 10^−7 mol L^−1): ~ 25%; hypochromia of the absorption band ([2]; cHSA~9 × 10^−6 mol L^−1, crel(HSA) = 3): ~ 36%
CCN1/C(=C/c2sc3ccccc3[n+]2CC)Sc2ccccc21 [MCD 3]	~ 1.3 × 10^4 s^−1	~ 4 × 10^3 s^−1	0 to 1 µmol/L	0.59	1	27800 L/mol	17600 L/mol	50%	26	34000 L/mol	50%	77 nM	230 nM	kqO2, rate constant of triplet state quenching by dissolved oxygen ([1]; main (short-lived) component): 3.6e+08 M⁻¹ s⁻¹; φfl^b, fluorescence quantum yield of the dye in the presence of biopolymer ([2]; listed as 3): ~50 ± 6%
CCN1/C(=C/c2ccc3ccccc3[n+]2CC)C=Cc2ccccc21 [MCD 4]			0.7–7.5 ^2 µmol L^−1	0.61	1	1830 L/mol	4820 L/mol	20%	109	17000 L/mol	~0.5 ± 0.1%	730 nM	2200 nM	τT, lifetime of the T state [1]: ~ 0.03 ms; drop in the apparent extinction coefficients ([2]; interaction with HSA): 1.5–2 fold
